These compounds were tested against T1, MAGL (Homo sapiens, UniProt Q99685) (assay: 2-AG assay: MAGL inhibitory activity by hydrolysis of 2-arachidonoylglycerol to arachidonic acid, mass spectrometry). Conditions: 2-AG assay (values marked [b]).
T1 sequence (Q99685 1-303): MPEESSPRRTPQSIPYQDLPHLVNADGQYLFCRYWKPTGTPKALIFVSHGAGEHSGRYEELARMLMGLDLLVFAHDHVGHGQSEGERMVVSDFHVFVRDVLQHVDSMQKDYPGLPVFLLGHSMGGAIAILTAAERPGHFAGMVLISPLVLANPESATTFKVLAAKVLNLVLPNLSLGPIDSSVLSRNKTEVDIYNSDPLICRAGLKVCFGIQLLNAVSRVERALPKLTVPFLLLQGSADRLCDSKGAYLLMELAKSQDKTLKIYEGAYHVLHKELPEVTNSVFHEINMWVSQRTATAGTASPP
Type: biochemical
Method: Alternatively, compounds were profiled for MAGL inhibitory activity by determining the enzymatic activity by following the hydrolysis of the natural substrate 2-arachidonoylglycerol (2-AG) resulting in arachidonic acid, which can be followed by mass spectrometry. This assay is hereinafter abbreviated “2-AG assay”.
The 2-AG assay was carried out in 384 well assay plates (PP, Greiner Cat #784201) in a total volume of 20 μL. Compound dilutions were made in 100% DMSO (VWR Chemicals 23500.297) in a polypropylene plate in 3-fold dilution steps to give a final concentration range in the assay from 12.5 μM to […]. 0.25 μL compound dilutions (100% DMSO) were added to 9 μL MAGL in assay buffer (50 mM TRIS (GIBCO, 15567-027), 1 mM EDTA (Fluka, 03690-100 mL), 0.01% (v/v) Tween. After shaking, the plate was incubated for 15 min at RT. To start the reaction, 10 μL 2-arachidonoylglycerol in assay buffer was added. The final concentrations in the assay was […] and 8 μM 2-arachidonoylglyerol. After shaking and 30 min incubation at RT, the reaction was quenched by the addition of 40 μL of ACN containing 4 μM of d8-arachidonic acid. The amount of arachidonic acid was traced by an online SPE system (Agilent Rapidfire) coupled to a triple quadrupole mass spectrometer (Agilent 6460). A C18 SPE cartridge (G9205A) was used in an ACN/water liquid setup. The mass spectrometer was operated in negative electrospray mode following the mass transitions 303.1→259.1 for arachidonic acid and 311.1→267.0 for d8-arachidonic acid. The activity of the compounds was calculated based on the ratio of intensities [arachidonic acid/d8-arachidonic acid].

| IC50 | SMILES |
| --- | --- |
| 63 nM | CC(C)(C)Cn1cc(-c2ccc(C(=O)N3CCN(c4nc5nc(Cl)ccc5o4)C[C@H]3CO)cc2)nn1 (stereo in doubt) [Example 289, [(2S)-4-(5-chlorooxazolo[4,5-b]pyridin-2-yl)-2-(hydroxymethyl)piperazin-1-yl]-[4-[1-(2,2-dimethylpropyl)triazol-4-yl]phenyl]methanone] |
| 2070 nM | CC(C)(C)Cn1cc(-c2ccc(C(=O)N3CCN(c4nc5nc(Cl)ccc5o4)C[C@@H]3CO)cc2)nn1 (stereo in doubt) [Example 290, [(2R)-4-(5-chlorooxazolo[4,5-b]pyridin-2-yl)-2-(hydroxymethyl)piperazin-1-yl]-[4-[1-(2,2-dimethylpropyl)triazol-4-yl]phenyl]methanone] |
| 327 nM | Cc1ccc2oc(N3CCN(C(=O)c4ccc(-c5nnc(CC(C)(C)C)n5C)cc4)CC3)nc2n1 [Example 74, [4-[5-(2,2-dimethylpropyl)-4-methyl-1,2,4-triazol-3-yl]phenyl]-[4-(5-methyloxazolo[4,5-b]pyridin-2-yl)piperazin-1-yl]methanone] |
| 19 nM | Cc1ccc2oc(N3CCN(C(=O)c4ccc(-c5cn(CC(C)(C)C)nn5)cc4)CC3)nc2n1 [Example 75, [4-[1-(2,2-dimethylpropyl)triazol-4-yl]phenyl]-[4-(5-methyloxazolo[4,5-b]pyridin-2-yl)piperazin-1-yl]methanone] |
| 1310 nM | Cn1c(-c2ccc(C(=O)N3CCN(c4nc5nc(Cl)ccc5o4)CC3)cc2)nnc1C(C)(C)C [Example 76, [4-(5-tert-butyl-4-methyl-1,2,4-triazol-3-yl)phenyl]-[4-(5-chlorooxazolo[4,5-b]pyridin-2-yl)piperazin-1-yl]methanone] |
| 2320 nM | Cc1ccc2oc(N3CCN(C(=O)c4ccc(-c5nnc(C(C)(C)C)n5C)cc4)CC3)nc2n1 [Example 77, [4-(5-tert-butyl-4-methyl-1,2,4-triazol-3-yl)phenyl]-[4-(5-methyloxazolo[4,5-b]pyridin-2-yl)piperazin-1-yl]methanone] |
| 4 nM | CC(C)(C)c1nc(-c2ccc(C(=O)N3CCN(c4nc5nc(Cl)ccc5o4)CC3)cc2Cl)no1 [Example 78, [4-(5-tert-butyl-1,2,4-oxadiazol-3-yl)-3-chloro-phenyl]-[4-(5-chlorooxazolo[4,5-b]pyridin-2-yl)piperazin-1-yl]methanone] |
| 24 nM | Cc1ccc2oc(N3CCN(C(=O)c4ccc(-c5noc(C(C)(C)C)n5)c(Cl)c4)CC3)nc2n1 [Example 79, [4-(5-tert-butyl-1,2,4-oxadiazol-3-yl)-3-chloro-phenyl]-[4-(5-methyloxazolo[4,5-b]pyridin-2-yl)piperazin-1-yl]methanone] |
| 21 nM | CC(C)(C)c1nc(-c2c(F)cc(C(=O)N3CCN(c4nc5nc(Cl)ccc5o4)CC3)cc2F)no1 [Example 80, [4-(5-tert-butyl-1,2,4-oxadiazol-3-yl)-3,5-difluoro-phenyl]-[4-(5-chlorooxazolo[4,5-b]pyridin-2-yl)piperazin-1-yl]methanone] |
| 9 nM | CC(C)(C)c1nc(-c2ccc(C(=O)N3CCN(c4nc5nc(Cl)ccc5o4)CC3)cc2C(F)(F)F)no1 [Example 81, [4-(5-tert-butyl-1,2,4-oxadiazol-3-yl)-3-(trifluoromethyl)phenyl]-[4-(5-chlorooxazolo[4,5-b]pyridin-2-yl)piperazin-1-yl]methanone] |
| 37 nM | Cc1ccc2oc(N3CCN(C(=O)c4ccc(-c5nnc(C(C)(C)C)o5)c(C)c4)CC3)nc2n1 [Example 82, [4-(5-tert-butyl-1,3,4-oxadiazol-2-yl)-3-methyl-phenyl]-[4-(5-methyloxazolo[4,5-b]pyridin-2-yl)piperazin-1-yl]methanone] |
| 11 nM | Cc1cc(C(=O)N2CCN(c3nc4nc(Cl)ccc4o3)CC2)ccc1-c1nnc(C(C)(C)C)o1 [Example 83, [4-(5-tert-butyl-1,3,4-oxadiazol-2-yl)-3-methyl-phenyl]-[4-(5-chlorooxazolo[4,5-b]pyridin-2-yl)piperazin-1-yl]methanone] |
| 2 nM | CC(C)(C)Cn1ncc(-c2ccc(C(=O)N3CCN(c4nc5nc(Cl)ccc5o4)CC3)cc2F)n1 [Example 84, (4-(5-chlorooxazolo[4,5-b]pyridin-2-yl)piperazin-1-yl)(3-fluoro-4-(2-neopentyl-2H-1,2,3-triazol-4-yl)phenyl)methanone] |
| 5 nM | Cc1ccc2oc(N3CCN(C(=O)c4ccc(-c5cnn(CC(C)(C)C)n5)c(F)c4)CC3)nc2n1 [Example 85, (3-fluoro-4-(2-neopentyl-2H-1,2,3-triazol-4-yl)phenyl)(4-(5-methyloxazolo[4,5-b]pyridin-2-yl)piperazin-1-yl)methanone] |
| 2 nM | CC(C)(C)Cn1cc(-c2ccc(C(=O)N3CCN(c4nc5nc(Cl)ccc5o4)CC3)cc2F)nn1 [Example 86, (4-(5-chlorooxazolo[4,5-b]pyridin-2-yl)piperazin-1-yl)(3-fluoro-4-(1-neopentyl-1H-1,2,3-triazol-4-yl)phenyl)methanone] |
| 151 nM | Cc1ccc2oc(N3CCN(C(=O)c4ccc(-c5cn(C(C)(C)C)nn5)cc4)CC3)nc2n1 [Example 87, (4-(1-(tert-butyl)-1H-1,2,3-triazol-4-yl)phenyl)(4-(5-methyloxazolo[4,5-b]pyridin-2-yl)piperazin-1-yl)methanone] |
| 71 nM | CC(C)(C)n1cc(-c2ccc(C(=O)N3CCN(c4nc5nc(Cl)ccc5o4)CC3)cc2)nn1 [Example 88, (4-(1-(tert-butyl)-1H-1,2,3-triazol-4-yl)phenyl)(4-(5-chlorooxazolo[4,5-b]pyridin-2-yl)piperazin-1-yl)methanone] |
| 25 nM | Cc1ccc2oc(N3CCN(C(=O)c4ccc(-c5ncn(C(C)(C)C)n5)c(Cl)c4)CC3)nc2n1 [Example 89, (4-(1-(tert-butyl)-1H-1,2,4-triazol-3-yl)-3-chlorophenyl)(4-(5-methyloxazolo[4,5-b]pyridin-2-yl)piperazin-1-yl)methanone] |
| 16 nM | CC(C)(C)n1cnc(-c2ccc(C(=O)N3CCN(c4nc5nc(Cl)ccc5o4)CC3)cc2Cl)n1 [Example 90, (4-(1-(tert-butyl)-1H-1,2,4-triazol-3-yl)-3-chlorophenyl)(4-(5-chlorooxazolo[4,5-b]pyridin-2-yl)piperazin-1-yl)methanone] |
| 3 nM | CC(C)(C)Cn1ncc(-c2c(F)cc(C(=O)N3CCN(c4nc5nc(Cl)ccc5o4)CC3)cc2F)n1 [Example 91, (4-(5-chlorooxazolo[4,5-b]pyridin-2-yl)piperazin-1-yl)(3,5-difluoro-4-(2-neopentyl-2H-1,2,3-triazol-4-yl)phenyl)methanone] |
| 10 nM | Cc1ccc2oc(N3CCN(C(=O)c4cc(F)c(-c5cnn(CC(C)(C)C)n5)c(F)c4)CC3)nc2n1 [Example 92, (3,5-difluoro-4-(2-neopentyl-2H-1,2,3-triazol-4-yl)phenyl)(4-(5-methyloxazolo[4,5-b]pyridin-2-yl)piperazin-1-yl)methanone] |
| 7 nM | CC(C)(C)Cn1cc(-c2c(F)cc(C(=O)N3CCN(c4nc5nc(Cl)ccc5o4)CC3)cc2F)nn1 [Example 93, (4-(5-chlorooxazolo[4,5-b]pyridin-2-yl)piperazin-1-yl)(3,5-difluoro-4-(1-neopentyl-1H-1,2,3-triazol-4-yl)phenyl)methanone] |

Source: patent publication US20220135591A1, “HETEROCYCLIC COMPOUNDS AS INHIBITORS OF MONOACYLGLYCEROL LIPASE (MAGL)” (Hoffmann-La Roche Inc., priority 2019, published 2022)
